# Reference: patent publication US6207656A, “Vitamin D analogues and their neuronal effects” (Cephalon, Inc., priority 1998, dated 2001)
# “Also recorded” adds a separate entry of the source.
# Tests used:
# [1] = Calcemic activity in rats, serum calcium after 7 days oral gavage; format: in vivo, LEW/MOL female rats; conditions: for Calcium in Serum: ± S.D.; for Calcemic Activity (%): potency relative to 1α,25(OH)2 D3, rats, p.o. 7 days; for calcemic classification: summary statement
# Procedure: For determining calcemic activity, LEW/MOL female rats (130-170 g) were administered test compounds daily for 7 days by oral gavage. Control rats received the vehicle. Each group consisted of 3 rats. Blood was collected by cardiac puncture on day 7.
# [2] = test system: hippocampal ChAT; test: Fimbria fornix lesion model, hippocampal ChAT activity; format: in vivo, rat; conditions: oral gavage daily 14 days, FIGS. 4 to 8; * p<0.05 vs vehicle-treated lesioned controls
# Description: The fimbria fornix lesion model is an established protocol for assessing cholinergic neuronal survival in the basal forebrain. […] Contained within the region of the brain 10 are cholinergic neurons 16. A healthy cholinergic neuron has a cell body 18, and one or more axons 20. Each of the axons 20 have a free end, referred to as a terminal 22, that extends into the hippocampus 14. In the fimbria fornix lesion model, damaged cholinergic neurons 24 are produced by transecting a portion of the axons 20 at a location 26 between the hippocampus 14 and the cell body 18. As a result of this transection, damaged cell bodies 28 are produced that no longer have cholinergic axons 30 and terminals 32. These damaged cell bodies 28, also lose cholinergic cell body markers 34 and stop producing ChAT. The fimbria fornix lesion model is used to study methods of restoring ChAT production, such as through stimulating increased production of ChAT in the healthy cholinergic neurons, and/or through restoring normal functioning of the damaged cholinergic neurons 24.
# For the studies described herein, animals were anesthetized with pentobarbital and placed in a stereotaxic apparatus. The skull was opened on the left side, a knife was positioned 1.2 mm posterior to bregma and 0.6 mm lateral to the midline. The knife was lowered to 4.5 mm below the dura into the brain and moved laterally 2 mm partially transecting the fimbria fornix. After 14 days of administration of the test compounds by oral gavage, the hippocampus was removed and homogenized.
# (§1) The hippocampal ChAT activity is expressed as a percentage of the hippocampal ChAT activity of the […] control side (i.e., lesion control) in FIGS. 4 to 8.
# [3] = molecular target: T1, vitamin D receptor (Gallus gallus, UniProt O42392); test: Vitamin D receptor binding (displacement of 3H-1α,25(OH)2D3)
# T1 sequence (O42392 1-451): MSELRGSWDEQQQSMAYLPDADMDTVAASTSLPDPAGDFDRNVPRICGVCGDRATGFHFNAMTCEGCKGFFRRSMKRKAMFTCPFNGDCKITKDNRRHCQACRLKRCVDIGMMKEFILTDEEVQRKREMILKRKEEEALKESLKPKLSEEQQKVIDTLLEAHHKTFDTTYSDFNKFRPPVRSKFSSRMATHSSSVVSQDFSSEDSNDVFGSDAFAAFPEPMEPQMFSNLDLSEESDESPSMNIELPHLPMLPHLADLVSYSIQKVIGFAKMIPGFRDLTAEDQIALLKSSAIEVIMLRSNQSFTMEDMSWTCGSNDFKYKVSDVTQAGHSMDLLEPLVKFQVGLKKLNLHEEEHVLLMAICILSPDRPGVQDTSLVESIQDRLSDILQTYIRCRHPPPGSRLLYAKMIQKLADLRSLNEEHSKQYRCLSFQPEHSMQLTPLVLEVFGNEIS
# Description: Bound and free ^3 H-1α,25(OH2)D3 were then separated on dextran-coated charcoal, samples were centrifuged and the supernatants containing the receptor-bound ^3 H-1α,25(OH2)D3 were counted in a liquid scintillation counter.
# [4] = Serum calcium in fimbria fornix lesioned rats; format: in vivo, Sprague Dawley rats; conditions: oral gavage daily 14 days; data not shown
# Procedure: For the fimbria fornix lesion studies, serum calcium was determined by the following method. Sprague Dawley rats (200-300 g) were dosed as described below. Blood was collected from the animals after sacrifice and allowed to clot at room temperature for 3-10 minutes; cells were pelleted in a clinical centrifuge.
# as §1
# [5] = test system: acrylamide-induced peripheral neuropathy in rats; test: Acrylamide-induced peripheral neuropathy, landing foot spread; format: in vivo, rat
# Procedure: Peripheral neuropathy was induced in rats by the administration of the neurotoxin acrylamide, 50 mg/kg, IP, 3×/week. The acrylamide treatment occurred during the first three weeks of the experiment. After acrylamide was discontinued, the animals were allowed to recover for an additional 3-5 weeks. The ability of Compound (A) or Compound (B) to either slow the onset of peripheral neuropathy, reduce the severity of the peripheral neuropathy or enhance the recovery from peripheral neuropathy was determined. The compounds were administered either orally (Compound (A)) or via subcutaneous Alzet mini-pumps (I month model)(Compounds (A) and (B)) beginning 3 days prior to the first dose of acrylamide. Compound (A) was administered orally at doses of 0.3, 1.0 and 3.0 μg/kg/day and by mini-pump at doses of 10, 55, 100, 330 and 550 ng/day. Compound (B) was administered by mini-pump at doses of 10, 33, 100, 330 and 1000 ng/day. These dose ranges were selected to limit toxicity and to bracket the dose range used in fimbria fornix lesion experiments. The mini-pumps were replaced at the end of the fourth week so that the test compound was on board for the duration of the experiment. In FIG. 11B, the data from FIG. 11A was averaged.
structure (smiles),measurement,setting,value
"C=C1/C(=C\C=C2/CCC[C@]3(C)[C@@H]([C@@H](C)CSc4cccc(C(C)(C)O)c4)CC[C@@H]23)C[C@@H](O)C[C@@H]1O [Compound (B), 1(S),3(R)-dihydroxy-20(R)-(3-((1-hydroxy-1-methyl)ethyl)phenylthiomethyl)-9,10-seco-pregna-5(Z),7(E),10(19)-triene]",Calcium in Serum,"[1]; 10 μg/kg/day p.o., Table 2B (vehicle 2.57 ± 0.06)",2.51 ± 0.05 mmol/L
same,Calcium in Serum,"[1]; 50 μg/kg/day p.o., Table 2B (vehicle 2.57 ± 0.06)",2.59 ± 0.02 mmol/L
same,Calcium in Serum,"[1]; 100 μg/kg/day p.o., Table 2B (vehicle 2.57 ± 0.06)",2.59 ± 0.04 mmol/L
same,Calcemic Activity (%),[1],1%
same,calcemic classification,[1],exemplary of low calcemic vitamin D3 analogues
same,hippocampal ChAT activity vs lesioned controls,[2],significant increase in CHAT activity
same,Kd,[3],0.2 nM
same,serum calcium at doses giving the ChAT results,[4],low calcemic dose levels
same,development of peripheral neuropathy,[5]; continuously pumped (mini-pump),did not prevent the development of the acrylamide-induced peripheral neuropathy
same,recovery from peripheral neuropathy,[5]; mini-pump,increased the recovery from acrylamide-induced peripheral neuropathy; also recorded: an effect upon the recovery from the lesion was apparent
same,return of landing foot spread to sham levels,[5]; mini-pump 10 ng/day,returned to sham levels by day 36
same,landing foot spread on day 40,"[5]; mini-pump 10, 100 or 1000 ng/day (FIG. 13B)",statistically significant decrease in landing foot spread
same,landing foot spread,"[5]; mini-pump, recovery period",decreased landing foot spread during the recovery period
"C=C1/C(=C\C=C2/CCC[C@]3(C)[C@@H]([C@@H](C)COc4cccc(C(C)(C)O)c4)CC[C@@H]23)C[C@@H](O)C[C@@H]1O [Compound (C), 1(S), 3(R)-dihydroxy-20(R)-[3-(2-hydroxy-2-propyl)-phenoxymethyl]-9,10-seco-pregna-5(Z),7(E),10(19)-triene]",Calcium in Serum,"[1]; 0.1 μg/kg/day p.o., Table 2C (vehicle 2.68 ± 0.03)",2.71 ± 0.07 mmol/L
same,Calcium in Serum,"[1]; 1.0 μg/kg/day p.o., Table 2C (vehicle 2.68 ± 0.03)",2.66 ± 0.06 mmol/L
same,Calcium in Serum,"[1]; 10 μg/kg/day p.o., Table 2C (vehicle 2.68 ± 0.03)",2.82 ± 0.05 mmol/L
same,Calcemic Activity (%),[1],8%
same,calcemic classification,[1],exemplary of low calcemic vitamin D3 analogues
same,hippocampal ChAT activity vs lesioned controls,[2],significant increase in CHAT activity
same,serum calcium at doses giving the ChAT results,[4],low calcemic dose levels
C=C1/C(=C\C=C2/CCC[C@]3(C)[C@@H]([C@H](C)CCCCC(O)(CC)CC)CC[C@@H]23)C[C@@H](O)C[C@@H]1O [Compound (D)],Calcium in Serum,"[1]; 0.1 μg/kg/day p.o., Table 2D (vehicle 2.51 ± 0.09)",2.59 ± 0.08 mmol/L
same,Calcium in Serum,"[1]; 5.0 μg/kg/day p.o., Table 2D (vehicle 2.51 ± 0.09)",2.90 ± 0.06 mmol/L
same,Calcium in Serum,"[1]; 10 μg/kg/day p.o., Table 2D (vehicle 2.51 ± 0.09)",3.19 ± 0.16 mmol/L
same,Calcemic Activity (%),[1],20%
same,calcemic classification,[1],exemplary of low calcemic vitamin D3 analogues
same,hippocampal ChAT activity vs lesioned controls,[2],significant increase in CHAT activity
same,serum calcium at doses giving the ChAT results,[4],low calcemic dose levels
